Results as given in the supplement of paper PMC10307832.

Columns and labels:
Test in all cases: relative viability (nuclei count vs DMSO), 5 days (fraction); higher = more cells survive
Zebularine + Vorinostat = compound: O=c1ncccn1[C@@H]1O[C@H](CO)[C@@H](O)[C@H]1O [Zebularine] + O=C(CCCCCCC(=O)Nc1ccccc1)NO [Vorinostat] (partner 1 µM)
How it was run: (§1)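 Nuclei were stained with Hoechst during a one-step fixation (final 0.05% Triton X-100, 1% formaldehyde, 1 ug/ml Hoechst) carried out 5 days after dosing, then counted on 4× images. The cells, lung cancer lines in 1536-well plates, had been dosed by pin tool the day after seeding with one drug alone or a fixed anchor-drug dose plus five library-drug doses (not always all listed) in √10 steps. Relative viability is the nuclei count in treated wells divided by that in vehicle wells, and each value is the median of duplicate plates.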

Zebularine + OSI-027 = compound: O=c1ncccn1[C@@H]1O[C@H](CO)[C@@H](O)[C@H]1O [Zebularine] + COc1cccc2cc(-c3nc([C@H]4CC[C@H](C(=O)O)CC4)n4ncnc(N)c34)[nH]c12 [OSI-027] (partner 0.5 µM)
How it was run: as §1

Zebularine + Alpelisib = compound: O=c1ncccn1[C@@H]1O[C@H](CO)[C@@H](O)[C@H]1O [Zebularine] + Cc1nc(NC(=O)N2CCC[C@H]2C(N)=O)sc1-c1ccnc(C(C)(C)C(F)(F)F)c1 [Alpelisib] (partner 2 µM)
How it was run: as §1

Zebularine + Linsitinib = compound: O=c1ncccn1[C@@H]1O[C@H](CO)[C@@H](O)[C@H]1O [Zebularine] + C[C@]1(O)C[C@@H](c2nc(-c3ccc4ccc(-c5ccccc5)nc4c3)c3c(N)nccn32)C1 [Linsitinib] (partner 1 µM)
How it was run: as §1

Row | Cell Line | relative viability (Zebularine + Vorinostat; first compound 1 µM) | relative viability (Zebularine + Vorinostat; first compound 3.162 µM) | relative viability (Zebularine + Vorinostat; first compound 10 µM) | relative viability (Zebularine + Vorinostat; first compound 31.62 µM) | relative viability (Zebularine + Vorinostat; first compound 100 µM) | relative viability (Zebularine + OSI-027; first compound 1 µM) | relative viability (Zebularine + OSI-027; first compound 3.162 µM) | relative viability (Zebularine + OSI-027; first compound 10 µM) | relative viability (Zebularine + OSI-027; first compound 31.62 µM) | relative viability (Zebularine + OSI-027; first compound 100 µM) | relative viability (Zebularine + Alpelisib; first compound 1 µM) | relative viability (Zebularine + Alpelisib; first compound 3.162 µM) | relative viability (Zebularine + Alpelisib; first compound 10 µM) | relative viability (Zebularine + Alpelisib; first compound 31.62 µM) | relative viability (Zebularine + Alpelisib; first compound 100 µM) | relative viability (Zebularine + Linsitinib; first compound 1 µM) | relative viability (Zebularine + Linsitinib; first compound 3.162 µM) | relative viability (Zebularine + Linsitinib; first compound 10 µM) | relative viability (Zebularine + Linsitinib; first compound 31.62 µM) | relative viability (Zebularine + Linsitinib; first compound 100 µM)
1 | NCI-H2023 | 0.946 | 0.561 | 0.509 | 0.518 | 0.216 | 0.471 | 0.437 | 0.314 | 0.457 | 0.302 | 0.697 | 0.551 | 0.533 | 0.53 | 0.287 | 0.664 | 0.689 | 0.604 | 0.63 | 0.303
2 | NCI-H23 | 0.661 | 0.587 |  | 0.542 | 0.509 | 0.674 | 0.55 | 0.368 | 0.628 | 0.518 | 0.577 | 0.709 |  | 0.775 | 0.563 | 0.671 | 0.549 |  | 0.646 | 0.548
3 | NCI-H1944 | 0.534 | 0.573 | 0.414 | 0.603 | 0.458 | 0.445 | 0.466 | 0.385 | 0.434 | 0.421 | 0.858 | 0.906 | 0.629 | 0.805 | 0.688 | 1.34 | 1.14 | 0.979 | 1.19 | 0.784
4 | NCI-H1793 | 0.819 | 0.895 | 0.41 | 0.448 | 0.328 | 0.26 | 0.215 |  | 0.288 | 0.221 | 0.812 | 0.7 | 0.391 | 0.357 | 0.193 | 0.882 | 0.978 | 0.365 | 0.464 | 0.197
5 | NCI-H520 | 0.752 | 0.685 | 0.462 | 0.45 | 0.242 | 0.281 | 0.23 | 0.266 | 0.298 | 0.239 | 1.1 | 0.835 | 0.429 | 0.375 | 0.275 | 0.98 | 1.02 | 0.47 | 0.297 | 0.199
6 | NCI-H460 | 0.652 | 0.702 | 0.297 | 0.298 | 0.166 | 0.971 | 0.707 | 0.336 | 0.18 | 0.0887 | 0.519 | 0.679 | 0.217 | 0.215 | 0.115 | 1.21 | 1.06 | 0.272 | 0.388 | 0.0365
7 | EKVX | 0.772 | 0.745 |  | 0.819 | 0.635 | 0.679 | 0.644 | 0.617 | 0.749 | 0.695 | 0.958 | 0.867 |  | 0.963 | 0.802 | 1.16 | 1.01 |  | 1.15 | 0.979
8 | NCI-H358 | 0.837 | 0.696 | 0.327 | 0.358 | 0.223 | 0.862 | 0.474 | 0.378 | 0.286 | 0.177 | 0.888 | 0.786 | 0.578 | 0.495 | 0.266 | 0.796 | 0.822 | 0.469 | 0.516 | 0.26
9 | EPLC-272H | 0.419 | 0.32 |  | 0.42 | 0.178 | 0.279 | 0.213 | 0.312 | 0.324 | 0.27 | 0.975 |  |  | 0.828 | 0.776 | 1.62 |  |  | 1.05 | 0.746
